Measurements published in patent US12509424B2, “Compound and composition as PDGF receptor kinase inhibitor” (NIPPON SHINYAKU CO., LTD., priority 2019, dated 2025).
pIC50: −log10 of the molar value.

What was measured:
[1] = target: TEL-PDGFRβ fusion gene transfected cells (Ba/F3); assay: Suppression of proliferation of TEL-PDGFRβ fusion gene transfected Ba/F3 cells; format: cell-based, human; details: TEL-PDGFRβ expressing Ba/F3 cells, 72 hours, final concentration 0.1 to 10,000 nM; read-out: PDGFR β/BaF3 proliferation inhibition (IC50)
Chain of TEL-PDGFRβ fusion gene transfected cells (Ba/F3) (P09619 33-1106 limits assumed, change not shown): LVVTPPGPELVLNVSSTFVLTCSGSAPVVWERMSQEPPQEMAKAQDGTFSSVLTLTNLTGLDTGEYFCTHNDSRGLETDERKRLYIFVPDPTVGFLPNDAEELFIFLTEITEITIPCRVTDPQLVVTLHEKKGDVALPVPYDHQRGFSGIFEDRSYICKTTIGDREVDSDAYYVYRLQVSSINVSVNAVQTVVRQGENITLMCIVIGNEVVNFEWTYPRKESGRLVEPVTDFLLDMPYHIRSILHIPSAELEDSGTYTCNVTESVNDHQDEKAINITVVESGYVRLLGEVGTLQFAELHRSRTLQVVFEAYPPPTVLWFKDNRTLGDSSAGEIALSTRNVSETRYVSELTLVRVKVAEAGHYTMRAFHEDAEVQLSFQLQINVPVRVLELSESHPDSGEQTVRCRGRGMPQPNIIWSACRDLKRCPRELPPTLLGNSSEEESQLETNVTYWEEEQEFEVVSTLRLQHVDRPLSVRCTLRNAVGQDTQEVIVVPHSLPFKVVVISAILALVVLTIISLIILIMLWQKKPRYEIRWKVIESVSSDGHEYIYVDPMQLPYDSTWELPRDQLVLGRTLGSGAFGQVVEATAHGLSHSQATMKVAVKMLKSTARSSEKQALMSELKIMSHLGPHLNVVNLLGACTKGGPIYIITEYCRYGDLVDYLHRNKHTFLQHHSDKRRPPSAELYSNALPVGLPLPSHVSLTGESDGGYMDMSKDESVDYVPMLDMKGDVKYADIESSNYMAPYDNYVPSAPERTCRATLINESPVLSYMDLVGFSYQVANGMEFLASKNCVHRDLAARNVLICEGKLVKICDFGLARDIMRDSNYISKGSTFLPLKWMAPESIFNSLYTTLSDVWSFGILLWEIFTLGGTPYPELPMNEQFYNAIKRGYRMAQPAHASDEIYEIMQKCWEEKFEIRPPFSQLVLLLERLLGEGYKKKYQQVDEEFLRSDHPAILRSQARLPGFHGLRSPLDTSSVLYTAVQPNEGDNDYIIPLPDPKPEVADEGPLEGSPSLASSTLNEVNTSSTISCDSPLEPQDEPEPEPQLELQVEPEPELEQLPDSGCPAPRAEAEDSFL
From the text: 2. Preparation of Test Substance
4. Analysis of Measurement Results

[2] = system: pulmonary arterial smooth muscle cells; assay: Suppression of proliferation of pulmonary arterial smooth muscle cells (PDGF-BB stimulation, BrdU); format: cell-based; details: PASMC, 24 h; healthy human derived pulmonary arterial smooth muscle cells; human PDGF-BB 10 ng/mL stimulation; BrdU uptake after 1 day; test substance final concentration 3 to 10,000 nM; read-out: Human normal PASMC proliferation suppression (PDGF stimulation_IC50)
How it was run: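 Healthy human pulmonary arterial smooth muscle cells, serum-starved a day in 0.1% FBS medium, were treated with compound at final 3 to 10,000 nM plus human PDGF-BB (final 10 ng/mL) and BrdU. After 1 day of culture, BrdU uptake was measured with an anti-BrdU antibody.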

PDGFR-β = PDGFR-β (Homo sapiens (Human), UniProt P09619); assay: PDGFR-β tyrosine kinase inhibitory action (HTRF KinEASE-TK); format: biochemical; details: PDGFR-β enzyme 1 ng/μL, 30° C. for 30 minutes; read-out: PDGF-β IC50
Chain of PDGFR-β (P09619 33-1106): as the sequence (P09619 33-1106 limits assumed, change not shown) above
How it was run: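 Recombinant PDGFR-β at 1 ng/μL final with TK substrate-3-biotin in a substrate solution containing 0.6 μM ATP; buffer 50 mM HEPES pH 7.0, 5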

[3] = target: TEL-KIT fusion gene transfected cells (Ba/F3); assay: Suppression of proliferation of TEL-KIT fusion gene transfected Ba/F3 cells; details: read-out: KIT/BaF3 proliferation inhibition (IC50); TEL-KIT expressing Ba/F3 cells, 72 hours, final concentration 0.1 to 10,000 nM;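 further: viable cells quantified via formazan from tetrazolium reduction, inhibition scaled with 0.1% DMSO control as 0% and medium-only blank as 100%, IC50 from two-parameter logistic fit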
Chain of TEL-KIT fusion gene transfected cells (Ba/F3) (P10721 26-976 limits assumed, change not shown): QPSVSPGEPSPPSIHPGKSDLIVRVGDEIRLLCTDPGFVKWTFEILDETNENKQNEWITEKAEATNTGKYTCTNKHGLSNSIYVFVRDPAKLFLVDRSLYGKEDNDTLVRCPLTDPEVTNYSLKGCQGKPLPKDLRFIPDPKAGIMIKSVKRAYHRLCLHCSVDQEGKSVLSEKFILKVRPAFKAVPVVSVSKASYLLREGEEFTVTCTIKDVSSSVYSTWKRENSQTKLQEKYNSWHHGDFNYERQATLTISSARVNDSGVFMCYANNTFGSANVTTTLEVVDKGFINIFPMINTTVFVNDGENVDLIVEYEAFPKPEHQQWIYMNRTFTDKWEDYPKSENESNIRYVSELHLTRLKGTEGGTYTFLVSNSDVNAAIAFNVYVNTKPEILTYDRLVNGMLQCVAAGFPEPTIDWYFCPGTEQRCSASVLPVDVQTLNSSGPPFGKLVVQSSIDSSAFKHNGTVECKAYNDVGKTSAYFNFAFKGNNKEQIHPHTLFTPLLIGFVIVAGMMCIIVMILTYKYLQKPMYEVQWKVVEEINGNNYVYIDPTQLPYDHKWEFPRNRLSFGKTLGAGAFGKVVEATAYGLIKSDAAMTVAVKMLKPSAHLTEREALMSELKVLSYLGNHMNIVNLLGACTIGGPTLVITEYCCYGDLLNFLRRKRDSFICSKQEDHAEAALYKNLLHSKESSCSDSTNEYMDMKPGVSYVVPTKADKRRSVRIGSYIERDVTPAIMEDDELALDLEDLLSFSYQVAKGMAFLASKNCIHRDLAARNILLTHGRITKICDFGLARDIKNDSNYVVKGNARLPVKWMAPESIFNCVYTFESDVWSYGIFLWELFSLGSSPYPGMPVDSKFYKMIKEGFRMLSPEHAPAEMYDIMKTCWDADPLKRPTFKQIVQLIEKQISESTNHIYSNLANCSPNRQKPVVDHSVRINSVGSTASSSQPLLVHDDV

Row | SMILES | pIC50 [1] | pIC50 (PDGFR-β) | pIC50 [3] | pIC50 [2]
1 | Cc1ccc(C(=O)N[C@H]2CCCC[C@@H]2O)cc1NCc1cncc(Br)c1 [Example 91, 3-{[(5-bromopyridin-3-yl)methyl]amino}-N-[(1S,2S)-2-hydroxycyclohexyl]-4-methylbenzamide] | 7.59 | 6.82 | 5.57 | 6.82
2 | Cc1ccc(C(=O)N[C@H]2CCCC[C@@H]2O)cc1NCc1cncc(-c2ccccc2)c1 [Example 92, N-[(1S,2S)-2-hydroxycyclohexyl]-4-methyl-3-{[(5-phenylpyridin-3-yl)methyl]amino}benzamide] | 7.70 | 7.34 | 5.85 | 7.18
3 | Cc1ccc(C(=O)N[C@H]2CCCC[C@@H]2O)cc1NCc1cncc(C#CC2CC2)c1 [Example 94, 3-({[5-(cyclopropylethynyl)pyridin-3-yl]methyl}amino)-N-[(1S,2S)-2-hydroxycyclohexyl]-4-methylbenzamide] | 8.00 | 7.31 | 6.59 | 7.05
4 | Cc1ccc(C(=O)N[C@H]2CCCC[C@@H]2O)cc1NCc1cncc(-c2ncccn2)c1 [Example 95, N-[(1S,2S)-2-hydroxycyclohexyl]-4-methyl-3-({[5-(pyrimidin-2-yl)pyridin-3-yl]methyl}amino)benzamide] | 8.24 | 6.92 | 6.00 | 7.02
5 | Cc1ccc(C(=O)N[C@H]2CCCC[C@@H]2O)cc1NCc1cnc2ccccc2c1 [Example 96, N-[(1S,2S)-2-hydroxycyclohexyl]-4-methyl-3-{[(quinolin-3-yl)methyl]amino}benzamide] | 7.92 | 6.70 | 6.51 | 7.14
6 | Cc1ccc(C(=O)N[C@H]2CCCC[C@@H]2O)cc1NCc1cncc(C#CC2(O)CC2)c1 [Example 97, N-[(1S,2S)-2-hydroxycyclohexyl]-3-[({5-[(1-hydroxycyclopropyl)ethynyl]pyridin-3-yl}methyl)amino]-4-methylbenzamide] | 7.70 | 7.00 | 5.72 | 6.80
7 | Cc1ccc(C(=O)N[C@H]2CCCC[C@@H]2O)cc1NCc1cncc(-c2ccc(C(C)(C)N)cc2)c1 [Example 98, 3-[({5-[4-(2-aminopropan-2-yl)phenyl]pyridin-3-yl}methyl)amino]-N-[(1S,2S)-2-hydroxycyclohexyl]-4-methylbenzamide] | 7.40 | 6.85 | < 5.00 | 6.80
8 | Cc1ccc(C(=O)N[C@H]2CCCC[C@@H]2O)cc1NCc1cncc(-c2ccc(N)cc2)c1 [Example 99, 3-({[5-(4-aminophenyl)pyridin-3-yl]methyl}amino)-N-[(1S,2S)-2-hydroxycyclohexyl]-4-methylbenzamide] | 9.30 | 7.89 | 6.32 | 7.57
9 | Cc1ccc(C(=O)N[C@H]2CCCC[C@@H]2O)cc1NCc1cncc(-c2cc(F)cc(F)c2)c1 [Example 100, 3-({[5-(3,5-difluorophenyl)pyridin-3-yl]methyl}amino)-N-[(1S,2S)-2-hydroxycyclohexyl]-4-methylbenzamide] | 7.77 | 7.49 | 5.05 | 7.15
10 | Cc1ccc(C(=O)N[C@H]2CCCC[C@@H]2O)cc1NCc1cncc(-c2ccccc2)n1 [Example 101, N-[(1S,2S)-2-hydroxycyclohexyl]-4-methyl-3-{[(6-phenylpyrazin-2-yl)methyl]amino}benzamide] | 7.25 | 6.77 | 5.05 | 7.15
11 | Cc1ccc(C(=O)N[C@H]2CCCC[C@@H]2O)cc1NCc1cncc(-c2cccs2)c1 [Example 102, N-[(1S,2S)-2-hydroxycyclohexyl]-4-methyl-3-({[5-(thiophen-2-yl)pyridin-3-yl]methyl}amino)benzamide] | 8.70 | 7.64 | 6.21 | 7.52
12 | Cc1ccc(C(=O)N[C@H]2CCCC[C@@H]2O)cc1NCc1cncc(-c2ccsc2)c1 [Example 103, N-[(1S,2S)-2-hydroxycyclohexyl]-4-methyl-3-({[5-(thiophen-3-yl)pyridin-3-yl]methyl}amino)benzamide] | 8.39 | 7.30 | 5.60 | 7.40

More lines, main results first:

Row | pIC50 [1] | pIC50 (PDGFR-β) | pIC50 [3] | SMILES | pIC50 [2]
13 | 8.47 | 6.59 | 5.47 | O=C(N[C@H]1CCCC[C@@H]1O)c1ccc(Cl)c(NCc2cncc(-c3ncccn3)c2)c1 [Example 104, 4-chloro-N-[(1S,2S)-2-hydroxycyclohexyl]-3-({[5-(pyrimidin-2-yl)pyridin-3-yl]methyl}amino)benzamide] | 7.42
14 | 8.33 | 6.64 | 6.04 | Cc1ccc(C(=O)N[C@H]2CCCC[C@@H]2O)cc1NCc1cnn2ccsc12 [Example 105, N-[(1S,2S)-2-hydroxycyclohexyl]-4-methyl-3-{[(pyrazolo[5,1-b][1,3]thiazol-7-yl)methyl]amino}benzamide] | 7.55
15 | 8.68 | 7.17 | 5.89 | Cc1c(F)cc(C(=O)N[C@H]2CCCC[C@@H]2O)cc1NCc1cncc(-c2ncccn2)c1 [Example 106, 3-fluoro-N-[(1S,2S)-2-hydroxycyclohexyl]-4-methyl-5-({[5-(pyrimidin-2-yl)pyridin-3-yl]methyl}amino)benzamide] | 6.85
16 | 7.72 | 6.72 | 5.92 | Cc1ccc(C(=O)N[C@H]2CCCC[C@@H]2O)cc1NCc1cncc(-c2ncc(F)cn2)c1 [Example 107, 3-({[5-(5-fluoropyrimidin-2-yl)pyridin-3-yl]methyl}amino)-N-[(1S,2S)-2-hydroxycyclohexyl]-4-methylbenzamide] | 6.96
17 | 8.64 | 7.29 | 6.52 | Cc1ccc(C(=O)N[C@H]2CCCC[C@@H]2O)cc1NCc1cnc2ccsc2c1 [Example 108, N-[(1S,2S)-2-hydroxycyclohexyl]-4-methyl-3-{[(thieno[3,2-b]pyridin-6-yl)methyl]amino}benzamide] | 7.07
18 | 8.89 | 7.41 | 6.60 | Cc1ccc(C(=O)N[C@H]2CCCC[C@@H]2O)cc1NCc1cnn(-c2ccccn2)c1 [Example 112, N-[(1S,2S)-2-hydroxycyclohexyl]-4-methyl-3-({[1-(pyridin-2-yl)-1H-pyrazol-4-yl]methyl}amino)benzamide] | 7.59
19 | 9.70 | 7.08 | 6.15 | Cc1ccc(C(=O)N[C@H]2CCCC[C@@H]2O)cc1NCc1cnc(N)nc1 [Example 113, 3-{[(2-aminopyrimidin-5-yl)methyl]amino}-N-[(1S,2S)-2-hydroxycyclohexyl]-4-methylbenzamide] | 7.29
20 | 8.57 | 6.57 | 6.02 | Cc1ccc(C(=O)N[C@H]2CCCC[C@@H]2O)cc1NCc1cnc(NC2CC2)nc1 [Example 114, 3-({[2-(cyclopropylamino)pyrimidin-5-yl]methyl}amino)-N-[(1S,2S)-2-hydroxycyclohexyl]-4-methylbenzamide] | 6.72
21 | 8.85 | 6.59 | 5.77 | Cc1ccc(C(=O)N[C@H]2CCCC[C@@H]2O)cc1NCc1cncc(-c2cnccn2)c1 [Example 115, N-[(1S,2S)-2-hydroxycyclohexyl]-4-methyl-3-({[5-(pyrazin-2-yl)pyridin-3-yl]methyl}amino)benzamide] | 6.54
22 | 7.66 | 6.68 | 6.14 | Cc1ccc(C(=O)N[C@H]2CCCC[C@@H]2O)cc1CNc1cncc(-c2cccnc2)c1 [Example 146, 3-{[([3,3′-bipyridin]-5-yl)amino]methyl}-N-[(1S,2S)-2-hydroxycyclohexyl]-4-methylbenzamide] | 7.36
23 | 8.25 | 7.62 | 7.00 | Cc1ccc(C(=O)N[C@H]2CCCC[C@@H]2O)cc1CNc1cncc(-c2ncccn2)c1 [Example 147, N-[(1S,2S)-2-hydroxycyclohexyl]-4-methyl-3-({[5-(pyrimidin-2-yl)pyridin-3-yl]amino}methyl)benzamide] | 7.28
24 | 8.62 | 7.80 | 6.77 | Cc1ccc(C(=O)N[C@H]2CCCC[C@@H]2O)cc1CNc1cncc(-c2ccccn2)c1 [Example 148, 3-{[([2,3′-bipyridin]-5′-yl)amino]methyl}-N-[(1S,2S)-2-hydroxycyclohexyl]-4-methylbenzamide] | 6.96
25 | 7.24 | 6.66 | 6.17 | Cc1ccc(C(=O)N[C@@H]2CCCC[C@H]2O)cc1CNc1cncc(-c2ncccn2)c1 [Example 149, N-[(1R,2R)-2-hydroxycyclohexyl]-4-methyl-3-({[5-(pyrimidin-2-yl)pyridin-3-yl]amino}methyl)benzamide] | 6.82
